For one data set, the system named is UM-SCC-22A. The experiment in a line: 6-day MTT cell growth, UM-SCC-22A. The following applies: read-out: IC50, inhibition of cell growth. The format is cell-based, human. The method, then: (§1) UM-SCC and human fibroblast cell lines were continuously exposed to varying concentrations of (−)-gossypol in 6-day MTT cell survival assays. Control wells contained media (DMEM) with vehicle alone. For each data point n=5.
(§2) Ten squamous cell carcinoma cell lines established at the University of Michigan (UM-SCC) and three human fibroblast lines were grown in Dulbecco's modified Eagle's medium (DMEM) supplemented with 10% fetal bovine serum. UM-SCC cell lines originated from the larynx (n=2; UM-SCC-12, -23), oral cavity/oropharynx (n=5; UM-SCC-1, -6, -14A, -74B, -81B), hypopharynx (n=1; UM-SCC-22A) and metastases from laryngeal cancers (n=2; UM-SCC-17B, -25). Human fibroblast cell lines originated from surgical specimens (fibroblast cell lines 2 and 3) and neonatal foreskin samples (fibroblast cell line 1).
(§3) Logarithmically growing cell lines were cultured, washed, counted, and plated at 5,000-15,000 cells per well in duplicate wells of 96-well plates and incubated in DMEM overnight. […] The MTT assay measures cell survival based on mitochondrial conversion of MTT from a soluble tetrazolium salt into an insoluble colored formazan precipitate, which is dissolved in dimethyl sulfoxide and quantitated by spectrophotometry. […] Percent absorbance relative to control was plotted as a linear function of drug concentration.

For data set [1], the system named is colon cancer cell line HT-29 xenograft. The following applies: Table 12; cisplatin 10 mg/kg i.v. twice q week; most mice, during the 2nd week of treatment; dose too high.
Data set [2] deals with PC-3 human prostate cancer bilateral xenografts. The experiment in a line: PC-3 xenograft, (−)-gossypol alone and with cisplatin (Table 11). The format is in vivo, NCr-nu nude mouse. The settings on record: mouse, in vivo.
A further data set concerns UM-SCC-6. As to the kind of experiment: 6-day MTT cell growth, UM-SCC-6. The format is cell-based, human. The settings on record: read-out: IC50, inhibition of cell growth. The method, then: as §1, §2, §3
Another data set deals with UM-SCC-1. As to the kind of experiment: 6-day MTT cell growth, UM-SCC-1. The data set is classed as cell-based, human. The following applies: read-out: IC50, inhibition of cell growth. The method, then: as §1, §2, §3
Data set [3] has as its system Fib-1 (fibroblast cell line 1). The experiment in a line: 6-day MTT cell growth, Fib-1. The data set is classed as cell-based, human. The following applies: read-out: IC50, inhibition of cell growth. The method, then:
as §1, §2, §3

In a further data set the test system is UM-SCC-25. As to the kind of experiment: 6-day MTT cell growth, UM-SCC-25. The data set is classed as cell-based, human. The following applies: read-out: IC50, inhibition of cell growth. The method, then:
as §1, §2, §3

Another data set has as its system UM-SCC-12. As to the kind of experiment: 6-day MTT cell growth, UM-SCC-12. The format is cell-based, human. The following applies: read-out: IC50, inhibition of cell growth. The method, then: as §1, §2, §3
For data set [4], the system named is Fib-3 (fibroblast cell line 3). As to the kind of experiment: 6-day MTT cell growth, Fib-3. The data set is classed as cell-based, human. The following applies: read-out: IC50, inhibition of cell growth. The method, then: as §1, §2, §3
The next data set relates to UM-SCC-81B. The experiment in a line: 6-day MTT cell growth, UM-SCC-81B. The settings on record: read-out: IC50, inhibition of cell growth. The data set is classed as cell-based, human. The method, then: as §1, §2, §3
For data set [5], the system named is Fib-2 (fibroblast cell line 2). As to the kind of experiment: 6-day MTT cell growth, Fib-2. The format is cell-based, human. The settings on record: read-out: IC50, inhibition of cell growth. The method, then: as §1, §2, §3
Another data set deals with UM-SCC-17B. As to the kind of experiment: 6-day MTT cell growth, UM-SCC-17B. The format is cell-based, human. The settings on record: read-out: IC50, inhibition of cell growth. The method, then: as §1, §2, §3
The subject of a further data set is UM-SCC-14A. The experiment in a line: 6-day MTT cell growth, UM-SCC-14A. The data set is classed as cell-based, human. The following applies: read-out: IC50, inhibition of cell growth. The method, then:
as §1, §2, §3

For a further data set, the system named is UM-SCC-23. The experiment in a line: 6-day MTT cell growth, UM-SCC-23. The format is cell-based, human. The following applies: read-out: IC50, inhibition of cell growth. The method, then: as §1, §2, §3
Another data set has as its system UM-SCC-74B. The experiment in a line: 6-day MTT cell growth, UM-SCC-74B. The format is cell-based, human. The settings on record: read-out: IC50, inhibition of cell growth. The method, then: as §1, §2, §3
Data set [6] concerns A549 non-small cell lung carcinoma xenograft. The experiment in a line: A549 non-small cell lung carcinoma xenograft, (−)-gossypol with paclitaxel. The following applies: Table 13; paclitaxel 15 mg/kg i.p. twice q week for 3 weeks, alone.
For data set [7] the test system is unchanged. The settings on record: mouse, in vivo.

A value given as a limit tells only on which side of the number the result lay.

Consider `N.N.[Cl][Pt][Cl]` [Cisplatin, cisplatin, reference compound], for which the half-maximal inhibitory concentration (IC50) – broadly, the concentration at which inhibition is half-maximal – in the data set with UM-SCC-22A was 5 µM; with UM-SCC-6, over 50 µM; in the data set with UM-SCC-1 it was 30 µM; in data set [3] it was over 50 µM; with UM-SCC-25 it was 43 µM; in the data set on UM-SCC-12 it was 22 µM. In addition, the IC50 in data set [4] is over 50 µM; with UM-SCC-81B, 22 µM; in data set [5], over 50 µM; in the data set with UM-SCC-17B, 13 µM; in the data set on UM-SCC-14A, 29 µM; in the data set with UM-SCC-23, 25 µM. The IC50 in the data set with UM-SCC-74B amounted to 12 µM. Moreover, in [1], the “mortality in cisplatin treated group” value is “mice were dead in the cisplatin”. The “time after CDDP treatment stopped when mice started to gain back the weight” value in data set [2] was “to gain back the weight 1-2 weeks”.
Turning to `CC(=O)O[C@H]1C(=O)[C@@]2(C)[C@H]([C@H](OC(=O)c3ccccc3)[C@]3(O)C[C@H](OC(=O)[C@H](O)[C@@H](NC(=O)c4ccccc4)c4ccccc4)C(C)=C1C3(C)C)[C@]1(OC(C)=O)CO[C@@H]1C[C@@H]2O` [Paclitaxel], the tumor growth inhibition entry in data set [6] was “achieved about 67% tumor growth”. Further, the weight loss entry in data set [7] is given as “There was no weight loss in mice”.

Values taken from patent US8163805B2, “Small molecule antagonists of Bcl-2 family proteins” (The Regents of the University of Michigan, priority 2001, dated 2012).
